Laboratory results from ChEMBL document CHEMBL1127015, “Centrally acting serotonergic and dopaminergic agents. 1. Synthesis and structure-activity relationships of 2,3,3a,4,5,9b-hexahydro-1H-benz[e]indole derivatives” (J Med Chem, 1993).
pIC50, pKi: −log10 of the molar value.

Key:
D(2) dopamine receptor [1] = target: T1, D(2) dopamine receptor (Homo sapiens, UniProt P14416); test: Intrinsic activity from GTP shift using membranes from CHO cells transfected with mammalian dopamine receptor D2.; type: cell membranes
D(2) dopamine receptor [2] = target: T2, D(2) dopamine receptor (Rattus norvegicus, UniProt P61169); test: Binding affinity against [3H]raclopride-labeled dopamine receptor D2 in rat striatum.; type: tissue-based
Mus musculus [3] = test: Antagonism of apomorphine in reserpinized mice when a dose of 3.6 micro mol/kg is administered intraperitoneally; type: functional
Mus musculus [4] = test: Antagonism of apomorphine in reserpinized mice when a dose of 36 micro mol/kg is administered intraperitoneally; type: functional
Mus musculus [5] = test: Antagonism of apomorphine effects for 10-20 minutes in reserpinized mice following 0.4 umol/kg i.p.; type: functional
Mus musculus [6] = test: Antagonism of apomorphine for 10-20 minutes in reserpinized mice when a dose of 3.6 micro mol/kg is administered intraperitoneally; type: functional
Mus musculus [7] = test: Antagonism of apomorphine effects for 0-10 minutes in reserpinized mice following 0.4 umol/kg i.p.; type: functional; design: unit not given beside the values
Mus musculus [8] = test: Antagonism of apomorphine for 0-10 minutes in reserpinized mice when a dose of 3.6 micro mol/kg is administered intraperitoneally; type: functional
Mus musculus [9] = test: Antagonism of apomorphine for 0-10 minutes in reserpinized mice when a dose of 36 micro mol/kg is administered intraperitoneally; type: functional
Mus musculus [10] = test: Ability to stimulate dopaminergic systems by effect on locomotor activity in reserpinized mice when a dose of 3.6 micro mol/kg is administered intraperitoneally; type: functional
Mus musculus [11] = test: Ability to stimulate dopaminergic systems by effect on locomotor activity in reserpinized mice when a dose of 36 micro mol/kg is administered intraperitoneally; type: functional
Mus musculus [12] = test: Increase in locomotor activity in reserpinized mice following 0.4 umol/kg i.p.; type: functional
Mus musculus [13] = test: Antagonism of apomorphine for 10-20 minutes in reserpinized mice when a dose of 36 micro mol/kg is administered intraperitoneally; type: functional
Rattus norvegicus [14] = test: Inhibition of firing rates of dopaminergic neurons in the substantia nigra pars compacta by intravenous injection in rats; type: functional
Rattus norvegicus [15] = test: Inhibition of firing rates of serotonergic neurons in the substantia nigra pars compacta by intravenous injection in rats.; type: functional
Mus musculus [16] = test: Antagonism of apomorphine effects in reserpinized mice following 0.4 umol/kg i.p.; type: functional
D(2) dopamine receptor [17] = target: T1, D(2) dopamine receptor; test: Compound was evaluated for the intrinsic activity from GTP shift against dopamine receptor D2; type: functional
Mus musculus [18] = test: Antagonism of apomorphine in reserpinized mice when a dose of 3.5 micro mol/kg is administered intraperitoneally; type: functional
Mus musculus [19] = test: Antagonism of apomorphine in reserpinized mice when a dose of 35 micro mol/kg is administered intraperitoneally; type: functional
Mus musculus [20] = test: Antagonism of apomorphine for 10-20 minutes in reserpinized mice when a dose of 3.5 micro mol/kg is administered intraperitoneally; type: functional
Mus musculus [21] = test: Antagonism of apomorphine for 0-10 minutes in reserpinized mice when a dose of 3.5 micro mol/kg is administered intraperitoneally; type: functional
Mus musculus [22] = test: Antagonism of apomorphine for 0-10 minutes in reserpinized mice when a dose of 35 micro mol/kg is administered intraperitoneally; type: functional
Mus musculus [23] = test: Ability to stimulate dopaminergic systems by effect on locomotor activity in reserpinized mice when a dose of 3.5 micro mol/kg is administered intraperitoneally; type: functional
Mus musculus [24] = test: Ability to stimulate dopaminergic systems by effect on locomotor activity in reserpinized mice when a dose of 35 micro mol/kg is administered intraperitoneally; type: functional
Mus musculus [25] = test: Antagonism of apomorphine for 10-20 minutes in reserpinized mice when a dose of 35 micro mol/kg is administered intraperitoneally; type: functional
D(2) dopamine receptor [26] = target: T1, D(2) dopamine receptor; test: Compound was evaluated for the binding affinity against [3H]U-86,170-labeled dopamine receptor D2 in cloned CHO cells; type: cell-based
Felis catus [27] = test: Maximum decrease of arterial blood pressure at sympathetic nerve activity (SND) in anesthetized cat has been observed following 1 mg/kg dose; type: functional; design: scale not given: the % may be the effect or the level left
Felis catus [28] = test: Maximum decrease of sympathetic nerve activity (SND) in anesthetized cat has been expressed as percent control; type: functional; design: scale not given: the % may be the effect or the level left
D(2) dopamine receptor [29] = target: T2, D(2) dopamine receptor; test: Inhibitory concentration against [3H]raclopride-labeled dopamine receptor D2 in rat striatum; type: tissue-based
Mus musculus [30] = test: Time of effect in the face-to-face behavioral assay in the mouse when a dose of 0.0 micro mol/kg is administered subcutaneously; type: functional
Mus musculus [31] = test: Time of effect in the isolation-induced aggression behavioral assay in the mouse when a dose of 10 micro mol/kg is administered intraperitoneally; type: functional
Mus musculus [32] = test: Time of effect in the isolation-induced aggression behavioral assay in the mouse when a dose of 3.4 micro mol/kg is administered intraperitoneally; type: functional
Mus musculus [33] = test: Maximum decrease in temperature when compound is administered subcutaneously; type: functional
Mus musculus [34] = test: Time of effect in the face-to-face behavioral assay in the mouse when a dose of 34 micro mol/kg is administered subcutaneously; type: functional
Rattus norvegicus [35] = test: Inhibition of firing rates of dopaminergic neurons in the substantia nigra pars compacta by intravenous injection in rats.; type: functional; settings: Rattus norvegicus, Substantia nigra pars compacta, iv; read-out: ED50
Rattus norvegicus [36] = test: Inhibition of firing rates of serotonergic neurons in the dorsal raphe nucleus by intravenous injection in rats.; type: functional
Mus musculus [37] = test: Effective dose on hypothermia in mouse when administered subcutaneously; type: functional; settings: sc
Mus musculus [38] = test: Effective dose on hypothermia in mouse when administered through peroral route; type: functional; settings: po
Mus musculus [39] = test: Maximum decrease in temperature when compound is administered through peroral route; type: functional
D(2) dopamine receptor [40] = target: T1, D(2) dopamine receptor; test: Binding affinity against [3H]U-86,170-labeled dopamine receptor D2 in cloned CHO cells; type: cell-based
Mus musculus [41] = test: Antagonism of apomorphine in reserpinized mice when a dose of 3.7 micro mol/kg is administered intraperitoneally; type: functional
Mus musculus [42] = test: Antagonism of apomorphine in reserpinized mice when a dose of 37 micro mol/kg is administered intraperitoneally; type: functional
Mus musculus [43] = test: Antagonism of apomorphine for 0-10 minutes in reserpinized mice when a dose of 37 micro mol/kg is administered intraperitoneally; type: functional
Mus musculus [44] = test: Antagonism of apomorphine for 10-20 minutes in reserpinized mice when a dose of 3.7 micro mol/kg is administered intraperitoneally; type: functional
Mus musculus [45] = test: Antagonism of apomorphine for 0-10 minutes in reserpinized mice when a dose of 3.7 micro mol/kg is administered intraperitoneally; type: functional
Mus musculus [46] = test: Ability to stimulate dopaminergic systems by effect on locomotor activity in reserpinized mice when a dose of 3.7 micro mol/kg is administered intraperitoneally; type: functional
Mus musculus [47] = test: Ability to stimulate dopaminergic systems by effect on locomotor activity in reserpinized mice when a dose of 37 micro mol/kg is administered intraperitoneally; type: functional
Mus musculus [48] = test: Antagonism of apomorphine for 10-20 minutes in reserpinized mice when a dose of 37 micro mol/kg is administered intraperitoneally; type: functional
Rattus norvegicus [49] = organism: Rattus norvegicus; test: Effect on the synthesis rates of serotonin (5-HTP accumulation) in the rat ventral limbic brain region at 10.6uMkg; type: functional, Limbic system
Rattus norvegicus [50] = organism: Rattus norvegicus; test: Effect on the synthesis rates of serotonin (5-HTP accumulation) in the rat ventral limbic brain region at 10.6uMkg.; type: functional, Limbic system

T1 sequence (P14416 whole entry): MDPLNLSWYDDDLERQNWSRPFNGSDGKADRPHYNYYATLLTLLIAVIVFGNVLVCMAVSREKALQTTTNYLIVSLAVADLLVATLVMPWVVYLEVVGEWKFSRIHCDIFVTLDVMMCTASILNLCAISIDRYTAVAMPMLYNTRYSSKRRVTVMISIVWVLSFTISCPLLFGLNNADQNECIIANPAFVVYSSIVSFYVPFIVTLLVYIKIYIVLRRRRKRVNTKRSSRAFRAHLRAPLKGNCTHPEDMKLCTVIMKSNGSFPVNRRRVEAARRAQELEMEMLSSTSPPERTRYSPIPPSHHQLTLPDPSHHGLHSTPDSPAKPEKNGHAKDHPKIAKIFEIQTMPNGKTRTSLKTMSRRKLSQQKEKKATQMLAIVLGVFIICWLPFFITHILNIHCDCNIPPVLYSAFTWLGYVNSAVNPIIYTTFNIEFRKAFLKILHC
T2 sequence (P61169 whole entry): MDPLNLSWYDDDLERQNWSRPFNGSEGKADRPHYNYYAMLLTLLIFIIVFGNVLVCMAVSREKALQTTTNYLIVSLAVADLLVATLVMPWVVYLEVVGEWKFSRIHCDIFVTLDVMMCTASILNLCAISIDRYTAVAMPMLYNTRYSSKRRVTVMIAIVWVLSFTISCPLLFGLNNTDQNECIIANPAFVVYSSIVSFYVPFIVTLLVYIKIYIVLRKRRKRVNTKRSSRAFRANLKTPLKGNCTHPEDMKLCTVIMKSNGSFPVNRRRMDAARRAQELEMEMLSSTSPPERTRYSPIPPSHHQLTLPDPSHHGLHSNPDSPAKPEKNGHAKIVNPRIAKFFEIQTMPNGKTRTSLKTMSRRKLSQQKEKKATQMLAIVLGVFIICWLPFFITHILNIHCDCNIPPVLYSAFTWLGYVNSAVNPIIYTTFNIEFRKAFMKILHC

C=CCN1CC[C@H]2c3cccc(OC)c3CC[C@H]21
Intrinsic activity (D(2) dopamine receptor [1]): 0%
pKi (D(2) dopamine receptor [2]): 7.60
Locomotor activity (Mus musculus [3]): 62
Locomotor activity (Mus musculus [4]): 21
Locomotor activity (Mus musculus [5]): 120
Locomotor activity (Mus musculus [6]): 105
Locomotor activity (Mus musculus [7]): 164
Locomotor activity (Mus musculus [8]): 130
Locomotor activity (Mus musculus [9]): 52
Locomotor activity (Mus musculus [10]): 5
Locomotor activity (Mus musculus [11]): 3
Locomotor activity (Mus musculus [12]): 17
Locomotor activity (Mus musculus [13]): 38
ED50 (Rattus norvegicus [14]): 0.91 µmol/kg
ED50 (Rattus norvegicus [15]): 0.24 µmol/kg
Locomotor activity (Mus musculus [16]): 78

CCCN1CC[C@H]2c3c(cccc3OC)CC[C@H]21
Intinsic activity (D(2) dopamine receptor [17]): 37%
pKi (D(2) dopamine receptor [2]): 7.17
Locomotor activity (Mus musculus [18]): 6
Locomotor activity (Mus musculus [19]): 9
Locomotor activity (Mus musculus [5]): 93
Locomotor activity (Mus musculus [20]): 67
Locomotor activity (Mus musculus [7]): 60
Locomotor activity (Mus musculus [21]): 72
Locomotor activity (Mus musculus [22]): 49
Locomotor activity (Mus musculus [23]): 36
Locomotor activity (Mus musculus [24]): 69
Locomotor activity (Mus musculus [12]): 19
Locomotor activity (Mus musculus [25]): 51
Locomotor activity (Mus musculus [16]): 41

COc1cccc2c1C1CCN(CCc3ccccc3)[C@H]1CC2 (some centres not stated)
pKi (D(2) dopamine receptor [26]): 6.41

CCCN1[C@H](C)CC2c3c(cccc3OC)CC[C@H]21 (mixture of isomers)
Control (Felis catus [27]): 65%
Control (Felis catus [28]): 250%
pIC50 (D(2) dopamine receptor [29]): < 6.00
Time (Mus musculus [30]): 0.6 s
Time (Mus musculus [31]): 8 s
Time (Mus musculus [32]): 17 s
Max temperature decrease (Mus musculus [33]): 5.2
Time (Mus musculus [34]): 1.5 s
ED50 (Rattus norvegicus [35]): 1.7 µmol/kg
ED50 (Rattus norvegicus [36]): 0.1 µmol/kg
ED50 (Mus musculus [37]): 19 µmol/kg
ED50 (Mus musculus [38]): 104 µmol/kg
Max temperature decrease (Mus musculus [39]): 2.4

CCCN1CC[C@@H]2c3cccc(O)c3CC[C@H]21 (racemic)
Intrinsic activity (D(2) dopamine receptor [1]): 28%
pKi (D(2) dopamine receptor [40]): 7.03
pKi (D(2) dopamine receptor [2]): 7.48
Locomotor activity (Mus musculus [41]): 46
Locomotor activity (Mus musculus [42]): 4
Locomotor activity (Mus musculus [43]): 6
Locomotor activity (Mus musculus [5]): 86
Locomotor activity (Mus musculus [44]): 47
Locomotor activity (Mus musculus [7]): 54
Locomotor activity (Mus musculus [45]): 34
Locomotor activity (Mus musculus [46]): 2
Locomotor activity (Mus musculus [47]): 162
Locomotor activity (Mus musculus [12]): 63
Locomotor activity (Mus musculus [48]): 5
ED50 (Rattus norvegicus [35]): 0.43 µmol/kg
Locomotor activity (Mus musculus [16]): 72

CCCN1CC[C@H]2c3cccc(OC)c3CC[C@H]21 (racemic)
Control (Rattus norvegicus [49]): 7%
Control (Rattus norvegicus [50]): 34%
